Assay results published in the NIST ThermoML archive (doi:10.1016/j.jct.2015.06.024).
± gives the expanded uncertainty stated by the source.

Assay: mn = molality of the nth substance listed, in mol/kg
Details: 84.5 kPa, Liquid; for speed of sound: Frequency=3 MHz, Sing-around technique in a fixed-path interferometer; for mass density: Vibrating tube method

O=C(O)[C@@H]1CCCN1 [L-proline] + O
Details | mass density, 288.15 K [kg/m3] | mass density, 293.15 K [kg/m3] | mass density, 298.15 K [kg/m3] | mass density, 303.15 K [kg/m3] | mass density, 308.15 K [kg/m3] | speed of sound, 288.15 K [m/s] | speed of sound, 293.15 K [m/s] | speed of sound, 298.15 K [m/s] | speed of sound, 303.15 K [m/s] | speed of sound, 308.15 K [m/s]
m1 = 0.04355 | 1000.55 ± 0.11 | 999.631 ± 0.11 | 998.453 ± 0.11 | 997.041 ± 0.11 | 995.413 ± 0.11 | 1470.3 ± 1.2 | 1486.1 ± 1.2 | 1500.1 ± 1.2 | 1512.3 ± 1.2 | 1522.8 ± 1.2
m1 = 0.05237 | 1000.84 ± 0.11 | 999.916 ± 0.11 | 998.737 ± 0.11 | 997.322 ± 0.11 | 995.693 ± 0.11 | 1471 ± 1.2 | 1486.8 ± 1.2 | 1500.8 ± 1.2 | 1512.9 ± 1.2 | 1523.4 ± 1.2
m1 = 0.06122 | 1001.13 ± 0.11 | 1000.21 ± 0.11 | 999.025 ± 0.11 | 997.607 ± 0.11 | 995.975 ± 0.11 | 1471.7 ± 1.2 | 1487.6 ± 1.2 | 1501.5 ± 1.2 | 1513.6 ± 1.2 | 1524 ± 1.2
m1 = 0.06959 | 1001.41 ± 0.11 | 1000.48 ± 0.11 | 999.295 ± 0.11 | 997.877 ± 0.11 | 996.241 ± 0.11 | 1472.5 ± 1.2 | 1488.2 ± 1.2 | 1502.1 ± 1.2 | 1514.2 ± 1.2 | 1524.6 ± 1.2
m1 = 0.07882 | 1001.71 ± 0.11 | 1000.78 ± 0.11 | 999.588 ± 0.11 | 998.167 ± 0.11 | 996.529 ± 0.11 | 1473.2 ± 1.2 | 1488.9 ± 1.2 | 1502.8 ± 1.2 | 1514.8 ± 1.2 | 1525.2 ± 1.2
m1 = 0.08768 | 1002 ± 0.11 | 1001.07 ± 0.11 | 999.877 ± 0.11 | 998.452 ± 0.11 | 996.813 ± 0.11 | 1474 ± 1.2 | 1489.6 ± 1.2 | 1503.5 ± 1.2 | 1515.4 ± 1.2 | 1525.8 ± 1.2
m1 = 0.09661 | 1002.3 ± 0.11 | 1001.36 ± 0.11 | 1000.16 ± 0.11 | 998.734 ± 0.11 | 997.093 ± 0.11 | 1474.7 ± 1.2 | 1490.3 ± 1.2 | 1504.1 ± 1.2 | 1516.1 ± 1.2 | 1526.4 ± 1.2
m1 = 0.1056 | 1002.59 ± 0.11 | 1001.65 ± 0.11 | 1000.45 ± 0.11 | 999.02 ± 0.11 | 997.377 ± 0.11 | 1475.4 ± 1.2 | 1491 ± 1.2 | 1504.7 ± 1.2 | 1516.7 ± 1.2 | 1526.9 ± 1.2
m1 = 0.1234 | 1003.17 ± 0.11 | 1002.23 ± 0.11 | 1001.02 ± 0.11 | 999.585 ± 0.11 | 997.937 ± 0.11 | 1476.8 ± 1.2 | 1492.3 ± 1.2 | 1506 ± 1.2 | 1517.9 ± 1.2 | 1528.1 ± 1.2
m1 = 0.1414 | 1003.76 ± 0.11 | 1002.8 ± 0.11 | 1001.59 ± 0.11 | 1000.15 ± 0.11 | 998.498 ± 0.11 | 1478.3 ± 1.2 | 1493.7 ± 1.2 | 1507.3 ± 1.2 | 1519.1 ± 1.2 | 1529.3 ± 1.2
m1 = 0.1591 | 1004.34 ± 0.11 | 1003.37 ± 0.11 | 1002.15 ± 0.11 | 1000.71 ± 0.11 | 999.051 ± 0.11 | 1479.8 ± 1.2 | 1495.2 ± 1.2 | 1508.7 ± 1.2 | 1520.5 ± 1.2 | 1530.6 ± 1.2
m1 = 0.1775 | 1004.93 ± 0.11 | 1003.96 ± 0.11 | 1002.74 ± 0.11 | 1001.28 ± 0.11 | 999.622 ± 0.11 | 1481.3 ± 1.2 | 1496.6 ± 1.2 | 1510.1 ± 1.2 | 1521.8 ± 1.2 | 1531.8 ± 1.2
m1 = 0.1955 | 1005.51 ± 0.11 | 1004.53 ± 0.11 | 1003.3 ± 0.11 | 1001.85 ± 0.11 | 1000.18 ± 0.11 | 1482.8 ± 1.2 | 1498 ± 1.2 | 1511.4 ± 1.2 | 1523 ± 1.2 | 1533 ± 1.2
m1 = 0.2134 | 1006.09 ± 0.11 | 1005.1 ± 0.11 | 1003.87 ± 0.11 | 1002.4 ± 0.11 | 1000.73 ± 0.11 | 1484.2 ± 1.2 | 1499.4 ± 1.2 | 1512.6 ± 1.2 | 1524.2 ± 1.2 | 1534.1 ± 1.2
